Reference: US9656988B2 (Pharmacyclics LLC, priority 2013, dated 2017)
pIC50: −log10 of the molar value. Like-named read-outs stand apart in the source and are kept apart here.

Molecular target: BTK (Homo sapiens (Human), UniProt Q06187)
Experiment: Btk in vitro inhibitory activity (one of Method A TR-FRET, Method B electrophoretic mobility shift, Method C radiometric filter binding)
Assay type: biochemical
[1] = determined using one of the methods of Example 355a, 355b and 355c, read-out: BTK IC50

Sequence of BTK (Q06187 whole entry): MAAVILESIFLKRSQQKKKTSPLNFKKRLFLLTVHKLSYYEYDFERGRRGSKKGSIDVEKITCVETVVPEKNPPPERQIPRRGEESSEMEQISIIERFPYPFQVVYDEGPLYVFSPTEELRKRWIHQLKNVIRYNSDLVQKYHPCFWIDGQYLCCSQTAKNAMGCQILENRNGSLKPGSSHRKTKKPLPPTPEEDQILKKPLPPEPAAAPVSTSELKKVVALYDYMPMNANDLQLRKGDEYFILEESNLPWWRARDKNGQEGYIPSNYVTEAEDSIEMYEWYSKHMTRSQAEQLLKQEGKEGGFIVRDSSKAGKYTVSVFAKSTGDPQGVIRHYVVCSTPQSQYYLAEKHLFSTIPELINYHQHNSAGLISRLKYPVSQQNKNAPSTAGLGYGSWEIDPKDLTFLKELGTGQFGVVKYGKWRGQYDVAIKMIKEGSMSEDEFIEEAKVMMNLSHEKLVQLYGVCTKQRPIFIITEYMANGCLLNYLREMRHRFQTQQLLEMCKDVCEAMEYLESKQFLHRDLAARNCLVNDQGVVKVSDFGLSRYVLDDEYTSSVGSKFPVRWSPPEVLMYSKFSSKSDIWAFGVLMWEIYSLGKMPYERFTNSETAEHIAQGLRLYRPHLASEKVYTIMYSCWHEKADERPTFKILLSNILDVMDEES

Row | pIC50 [1] | Structure (SMILES) | pIC50 (read-out: Btk (IC50))
1 | – | CN1CCN([C@@H]2CCCN(c3cnc(C(N)=O)c(Nc4ccc(C5(C)CCN(C6CC6)CC5)cc4)n3)C2)C1=O [Example 263, (R)-3-(4-(1-cyclopropyl-4-methylpiperidin-4-yl)phenylamino)-5-(3-(3-methyl-2-oxoimidazolidin-1-yl)piperidin-1-yl)pyrazine-2-carboxamide] | > 8.00
2 | – | CC(C)N1CCC(C)(c2ccc(Nc3nc(N4CCC[C@@H](N5CCN(C)C5=O)C4)cnc3C(N)=O)cc2)CC1 [Example 264, (R)-3-(4-(1-isopropyl-4-methylpiperidin-4-yl)phenylamino)-5-(3-(3-methyl-2-oxoimidazolidin-1-yl)piperidin-1-yl)pyrazine-2-carboxamide] | > 8.00
3 | > 8.00 | CN1CCN([C@@H]2CCCN(c3cnc(C(N)=O)c(Nc4ccc(C5(C)CCN(C=O)CC5)cc4)n3)C2)C1=O [Example 268, (R)-3-(4-(1-formyl-4-methylpiperidin-4-yl)phenylamino)-5-(3-(3-methyl-2-oxoimidazolidin-1-yl)piperidin-1-yl)pyrazine-2-carboxamide] | > 8.00
4 | > 8.00 | CCC(=O)N1CCC(C)(c2ccc(Nc3nc(N4CCC[C@@H](N5CCN(C)C5=O)C4)cnc3C(N)=O)cc2)CC1 [Example 269, (R)-3-(4-(4-methyl-1-propionylpiperidin-4-yl)phenylamino)-5-(3-(3-methyl-2-oxoimidazolidin-1-yl)piperidin-1-yl)pyrazine-2-carboxamide] | > 8.00
5 | > 8.00 | CN1CCN([C@@H]2CCCN(c3cnc(C(N)=O)c(Nc4ccc(C5(C)CCN(C(=O)C6CC6)CC5)cc4)n3)C2)C1=O [Example 270, (R)-3-(4-(1-(cyclopropanecarbonyl)-4-methylpiperidin-4-yl)phenylamino)-5-(3-(3-methyl-2-oxoimidazolidin-1-yl)piperidin-1-yl)pyrazine-2-carboxamide] | > 8.00
6 | – | CN1CCN([C@@H]2CCCN(c3cnc(C(N)=O)c(Nc4ccc(C5(C#N)CCN(C6CCCC6)CC5)cc4)n3)C2)C1=O [Example 271, (R)-3-(4-(4-cyano-1-cyclopentylpiperidin-4-yl)phenylamino)-5-(3-(3-methyl-2-oxoimidazolidin-1-yl)piperidin-1-yl)pyrazine-2-carboxamide] | > 8.00
7 | – | CN1CCN([C@@H]2CCCN(c3cnc(C(N)=O)c(Nc4ccc(C5(C(N)=O)CCN(C6CCCC6)CC5)cc4)n3)C2)C1=O [Example 272, (R)-3-(4-(4-carbamoyl-1-cyclopentylpiperidin-4-yl)phenylamino)-5-(3-(3-methyl-2-oxoimidazolidin-1-yl)piperidin-1-yl)pyrazine-2-carboxamide] | > 8.00
8 | > 8.00 | NC(=O)c1ncc(N2CCC[C@@H](N3CCNC3=O)C2)nc1Nc1ccc(C2CCN(C3CCCC3)CC2)cc1 [Example 274, (R)-3-(4-(1-cyclopentylpiperidin-4-yl)phenylamino)-5-(3-(2-oxoimidazolidin-1-yl)piperidin-1-yl)pyrazine-2-carboxamide] | > 8.00

Row | Structure (SMILES) | pIC50 [1] | pIC50 (read-out: Btk (IC50))
9 | CN1CCN([C@@H]2CCCN(c3cnc(C(N)=O)c(Nc4ccc(C5(C)CCN(C6CCCC6)CC5)cc4)n3)C2)C1=O [Example 267, (R)-3-(4-(1-cyclopentyl-4-methylpiperidin-4-yl)phenylamino)-5-(3-(3-methyl-2-oxoimidazolidin-1-yl)piperidin-1-yl)pyrazine-2-carboxamide] | > 8.00 | > 8.00
10 | CN1CCN([C@@H]2CCCN(c3cnc(C(N)=O)c(Nc4ccc(C5(C#N)CCN(C6CCC6)CC5)cc4)n3)C2)C1=O [Example 273, (R)-3-(4-(4-cyano-1-cyclobutylpiperidin-4-yl)phenylamino)-5-(3-(3-methyl-2-oxoimidazolidin-1-yl)piperidin-1-yl)pyrazine-2-carboxamide] | > 8.00 | > 8.00
